Source: patent publication US5158969A, “Indole derivatives as potassium channel blockers” (NeuroSearch A/S, priority 1991, dated 1992)

Tests used:
BKCa channel [1] = assay: Single channel patch-clamp, inside-out patches of bovine aortic smooth muscle cells; type: cell-based; conditions: 20 μM
Procedure: (§1) All electrophysiological experiments were performed with patch-clamp technique (Hamill et al., Pflugers Arch. 391, 85-100 (1981). The ion composition of the internal solution was (in mM) 4 NaCl, 140 KCl, 1 CaCl2, 1 MgCl2, 2 EGTA, 10 HEPES and the external solution contained 140 NaCl, 4 Kcl, 2 CaCl2, 1 MgCl2 and 10 HEPES.

BKCa channel [2] = assay: Single channel patch-clamp in pancreatic β-cells; type: cell-based
Procedure: as §1

[3] = system: social recognition memory of adult male Wistar rats; assay: Social recognition model; type: in vivo, rat
Procedure: In short, adult male Wistar rats (350 g) were housed individually in normal transparent plexiglas cages. After a habituation period of at least 24 hours a juvenile male Wistar rat (25-30 days old) was introduced in the cage in a 5 min period (first exposure). A second exposure of the same juvenile rat for another 5 min period was performed either 5 min later or 120 min later. In one case, another juvenile rat was introduced 120 min after an exposure of a juvenile rat. The adult rat was administered either saline or different doses of 1-(4-methoxyphenyl)-indole i.p. 15 min before the first exposure of the juvenile rat.
In both sessions (1st and 2nd exposure period) the total duration of investigatory behaviour consisting of sniffing, nosing and grooming performed by the adult rat was noted.
The adult rat (n=10-20) used generally 100-110 sec investigating the juvenile rat on the first exposure. […] The memory seems basically to be based on recognition of urine odour.

[4] = system: immobility of female NMRI mice; assay: Tail suspension test; type: in vivo; conditions: 30 min before test, 6 min suspension
Procedure: 1-(4-methoxyphenyl)-indole has been studied in the socalled tail suspension test as described by L. Steru et al., Prog. Neuro-Psychopharmacol. Biol. Psychiatry 11, 659-671 (1987). Female NMRI mice (20-25 g, 10 mice per dose) were suspended by the tail with adhesive tape for 6 min. The mice alternated between phases of activity (trying to escape) and immobility (despair). The duration of immobility was recorded manually. Saline, 1-(4-methoxyphenyl)-indole or desipramine were administered i.p. 30 min before the start of the test.

SMILES | block of the BKCa channel (BKCa channel [1]) | block of the BKCa channel (BKCa channel [2]) | investigatory behaviour on the second exposure with a new (unknown) juvenile rat ([3]; 30 mg/kg i.p. 15 min before first exposure, new juvenile rat) | investigatory behaviour on the first exposure ([3]; 7.5-30 mg/kg i.p. 15 min before first exposure) | investigatory behaviour on the second exposure of the same juvenile rat ([3]; 7.5-30 mg/kg i.p., second exposure 120 min later, same juvenile rat) | duration of immobility ([4]; doses between 10 and 100 mg/kg i.p.) | duration of immobility ([4]; doses between 1 and 30 mg/kg i.p.)
COc1ccc(-n2ccc3ccccc32)cc1 [1-(4-methoxyphenyl)-indole] | potently at 20 μM blocked the BKCa channel | potently blocked the BKCa channel | normal investigatory behaviour was seen | did not interfere with the adult rats investigatory behaviour | significant decrease in investigatory behaviour | inhibited the immobility dose-dependently | –
CNCCCN1c2ccccc2CCc2ccccc21 [Desipramine, reference compound] | – | – | – | – | – | – | reduced the immobility dose-dependently
